Some test systems named below: HOP-92 NSCLC; U251 CNS; T-47D breast; ACHN renal; SW-620 colon; MALME-3M melanoma; COLO 205 colon; TK-10 renal; SK-OV-3 ovarian; UACC-257 melanoma.
What all share (assay): DTP human tumour cell line panel, 48 h

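Exposure lasted 48 hours, with cells grown in 96-well plates and compounds tested at five concentrations. GI50 = concentration required for 50% inhibition of growth. The concentration for full growth arrest is given as TGI.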 A value given as a limit tells only on which side of the number the result lay.

In general, GI50 refers to the concentration giving 50% growth inhibition. Usually TGI stands for the concentration giving total growth inhibition. With `O=S(=O)(N=C1C(Cl)=C(Cl)C(=NS(=O)(=O)c2ccccc2)C(Cl)=C1Cl)c1ccccc1`, the GI50 in the test on HOP-92 NSCLC is 56.9 µM; in the test with U251 CNS it was 19.3 µM; with T-47D breast it was 23.8 µM; in the test on ACHN renal, 20.5 µM; in the test on SW-620 colon, 13.4 µM; in the test on MALME-3M melanoma it was 18.5 µM. The GI50 with COLO 205 colon was 23.9 µM; with TK-10 renal, 24.9 µM; in the test with SK-OV-3 ovarian, 43.2 µM; with UACC-257 melanoma, 24 µM. Also, the TGI was over 100 µM in the test on HOP-92 NSCLC; 54 µM in the test with U251 CNS; over 100 µM in the test on T-47D breast; 65 µM in the test with ACHN renal; 28 µM with SW-620 colon; 56.4 µM with MALME-3M melanoma. Besides, the concentration for total growth inhibition (TGI) is 88.8 µM in the test on COLO 205 colon, 61.9 µM in the test with TK-10 renal, over 100 µM with SK-OV-3 ovarian and 86.3 µM in the test on UACC-257 melanoma.

Regarding `COc1cc(-n2ccnc2-c2ccc3ccccc3c2)cc(OC)c1OC`, the GI50 in the test with HOP-92 NSCLC was 3.72 µM; with U251 CNS, 0.0907 µM; with T-47D breast, 0.633 µM; in the test with ACHN renal, 2.6 µM; in the test with SW-620 colon, 0.0443 µM; in the test on MALME-3M melanoma it was 3.66 µM. Further, the GI50 is under 0.0282 µM in the test with COLO 205 colon, 0.936 µM in the test with TK-10 renal, 0.13 µM in the test with SK-OV-3 ovarian and 20 µM in the test on UACC-257 melanoma. For the same compound, the TGI is 28.9 µM with HOP-92 NSCLC; 21.5 µM in the test on U251 CNS; 60.7 µM in the test with T-47D breast; 49 µM in the test on ACHN renal; over 63 µM in the test with SW-620 colon; 31.9 µM with MALME-3M melanoma. In addition, the concentration for total growth inhibition (TGI) is 0.785 µM with COLO 205 colon, 45.2 µM in the test on TK-10 renal, 24.7 µM in the test on SK-OV-3 ovarian and over 100 µM in the test with UACC-257 melanoma.

Regarding `NC(=O)c1cc(N2CC2)c([N+](=O)[O-])cc1[N+](=O)[O-]`, the GI50 with HOP-92 NSCLC, in the test with U251 CNS, with ACHN renal, with SW-620 colon, in the test with COLO 205 colon and in the test on SK-OV-3 ovarian was over 200 µM throughout. The GI50 in the test with UACC-257 melanoma was over 200 µM. The TGI with HOP-92 NSCLC, with U251 CNS, in the test on T-47D breast, in the test on ACHN renal, in the test on SW-620 colon and in the test with MALME-3M melanoma was over 200 µM in each case. Moreover, the concentration for total growth inhibition (TGI) in the test with COLO 205 colon, in the test with TK-10 renal, in the test on SK-OV-3 ovarian and in the test on UACC-257 melanoma was over 200 µM throughout.

Regarding `CCCc1nn(C)c2c(=O)[nH]c(-c3cc(S(=O)(=O)N4CCN(C)CC4)ccc3OCC)nc12`, the GI50 in the test with HOP-92 NSCLC is 23.5 µM; in the test with U251 CNS, over 100 µM; with T-47D breast it was over 100 µM; in the test with ACHN renal, over 100 µM; in the test on SW-620 colon, over 100 µM; in the test on MALME-3M melanoma, over 100 µM. Also, the GI50 with COLO 205 colon was over 100 µM; in the test on TK-10 renal, 94.3 µM; in the test with SK-OV-3 ovarian, over 100 µM; with UACC-257 melanoma it was over 100 µM. Also, the TGI with HOP-92 NSCLC was 97.5 µM; with U251 CNS, over 100 µM; in the test on T-47D breast, over 100 µM; in the test with ACHN renal it was over 100 µM; in the test with SW-620 colon, over 100 µM; in the test with MALME-3M melanoma, over 100 µM. Besides, the TGI with COLO 205 colon, in the test on TK-10 renal, in the test with SK-OV-3 ovarian and in the test with UACC-257 melanoma was over 100 µM throughout.

Regarding `CC(=O)O.CN1[CH-]N(Cc2ccc(C#N)cc2)c2ccccc21.[Ag+]`, the GI50 in the test on HOP-92 NSCLC was 20.3 µM; in the test with U251 CNS, 17.2 µM; in the test on T-47D breast, 14.8 µM; with ACHN renal, 16.3 µM; in the test with SW-620 colon it was 15.3 µM; with MALME-3M melanoma, 19.8 µM. Moreover, the GI50 in the test on COLO 205 colon is 10.3 µM; in the test on TK-10 renal, 18 µM; in the test on SK-OV-3 ovarian, 24.4 µM; in the test with UACC-257 melanoma it was 14.8 µM. Further, the TGI was 40.7 µM in the test on HOP-92 NSCLC; 36.4 µM in the test on U251 CNS; 60.1 µM in the test with T-47D breast; 30.2 µM with ACHN renal; 31 µM in the test with SW-620 colon; 41.5 µM with MALME-3M melanoma. The total growth inhibition concentration (TGI) in the test on COLO 205 colon was 31.5 µM; in the test on TK-10 renal it was 32 µM; in the test on SK-OV-3 ovarian it was 63.5 µM; in the test with UACC-257 melanoma, 29.7 µM.

As to `COc1cc(-c2nn(-c3cccc(NC(=O)Nc4ccc(Cl)c(C(F)(F)F)c4)c3)cc2-c2ccncc2)ccc1Cl`, the GI50 is 0.499 µM with HOP-92 NSCLC; 0.985 µM in the test on U251 CNS; 1.23 µM with T-47D breast; 1.1 µM in the test with ACHN renal; 1.29 µM with SW-620 colon; 0.838 µM in the test with MALME-3M melanoma. Also, the GI50 in the test on COLO 205 colon is 0.711 µM; in the test on TK-10 renal, 1.51 µM; in the test on SK-OV-3 ovarian, 1.45 µM; in the test on UACC-257 melanoma it was 1.21 µM. The concentration for total growth inhibition (TGI) with HOP-92 NSCLC was 1.48 µM; with U251 CNS it was 4.18 µM; with T-47D breast, over 32.5 µM; with ACHN renal, 15.6 µM; in the test with SW-620 colon, 29.9 µM; in the test on MALME-3M melanoma, 2.35 µM. Further, the TGI with COLO 205 colon amounted to 1.54 µM; in the test on TK-10 renal, 13.5 µM; with SK-OV-3 ovarian, 13 µM; in the test with UACC-257 melanoma, 6.03 µM.

Values taken from PubChem BioAssay (NCI).
